Test results from ChEMBL document CHEMBL4406833 (Eur J Med Chem, 2019).
In brackets after ≈: the same amount, converted by molar mass.

Experiments:
[1] = molecular target: Indoleamine 2,3-dioxygenase 1 (Homo sapiens, UniProt P14902); experiment: Inhibition of IDO1 in human HeLa cells using L-tryptophan as substrate incubated for 48 hrs; assay type: cell-based
[2] = molecular target: T1, Indoleamine 2,3-dioxygenase 2 (Homo sapiens, UniProt Q6ZQW0); experiment: Inhibition of N-terminal His-tagged human IDO2 expressed in Escherichia coli expression system
T1 sequence (Q6ZQW0 whole entry): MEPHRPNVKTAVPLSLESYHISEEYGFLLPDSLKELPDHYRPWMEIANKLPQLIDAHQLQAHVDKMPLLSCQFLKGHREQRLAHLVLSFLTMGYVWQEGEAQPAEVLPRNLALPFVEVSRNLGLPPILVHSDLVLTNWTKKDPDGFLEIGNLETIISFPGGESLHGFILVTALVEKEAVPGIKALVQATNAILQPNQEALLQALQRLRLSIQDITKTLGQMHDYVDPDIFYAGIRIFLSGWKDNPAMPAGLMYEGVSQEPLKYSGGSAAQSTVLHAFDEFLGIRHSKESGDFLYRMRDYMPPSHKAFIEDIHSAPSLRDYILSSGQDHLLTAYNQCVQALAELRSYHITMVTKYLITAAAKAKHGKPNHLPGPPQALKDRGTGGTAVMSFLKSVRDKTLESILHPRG

[3] = molecular target: Tryptophan 2,3-dioxygenase (Homo sapiens, UniProt P48775); experiment: Inhibition of N-terminal His-tagged human TDO expressed in Escherichia coli expression system
Chain of Tryptophan 2,3-dioxygenase (P48775 whole entry): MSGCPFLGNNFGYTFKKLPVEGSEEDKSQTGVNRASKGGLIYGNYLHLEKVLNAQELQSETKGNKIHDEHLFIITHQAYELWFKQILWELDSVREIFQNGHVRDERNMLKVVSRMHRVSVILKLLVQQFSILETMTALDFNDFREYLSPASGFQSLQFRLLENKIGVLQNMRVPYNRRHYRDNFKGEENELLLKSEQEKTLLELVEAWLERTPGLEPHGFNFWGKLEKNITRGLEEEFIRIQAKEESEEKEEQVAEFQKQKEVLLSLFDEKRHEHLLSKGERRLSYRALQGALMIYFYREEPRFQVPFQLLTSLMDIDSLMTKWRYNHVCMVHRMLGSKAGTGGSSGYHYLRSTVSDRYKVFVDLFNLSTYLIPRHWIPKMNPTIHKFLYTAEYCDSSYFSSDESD

[4] = Apparent permeability across apical to basolateral side in human Caco2 cells upto 90 mins by LC-MS/MS analysis; assay type: ADME, cell-based; settings: Caco-2
[5] = Aqueous solubility of compound at 1 mg after 30 hrs by HPLC analysis; assay type: physicochemical
[6] = Toxicity in C57BL6 mouse allografted with Lewis cells assessed as increase in body weight at 60 mg/kg, ig measured every 3 days for 30 days; assay type: organism-based; settings: in vivo, po, 720 h
[7] = system: Lewis lung carcinoma cell line; experiment: Antimetastatic activity against LLC cells allografted in C57BL6 mouse assessed as number of metastatic nodules in lung at 60 mg/kg, ig after 30 days by H and E staining based analysis; assay type: functional
[8] = system: Lewis lung carcinoma cell line; experiment: Antimetastatic activity against LLC cells allografted in C57BL6 mouse assessed as inhibition of metastatic nodules in lung at 60 mg/kg, ig after 30 days by H and E staining based analysis relative to control; assay type: functional; settings: po, 720 h

Chain of Indoleamine 2,3-dioxygenase 1 (P14902 whole entry): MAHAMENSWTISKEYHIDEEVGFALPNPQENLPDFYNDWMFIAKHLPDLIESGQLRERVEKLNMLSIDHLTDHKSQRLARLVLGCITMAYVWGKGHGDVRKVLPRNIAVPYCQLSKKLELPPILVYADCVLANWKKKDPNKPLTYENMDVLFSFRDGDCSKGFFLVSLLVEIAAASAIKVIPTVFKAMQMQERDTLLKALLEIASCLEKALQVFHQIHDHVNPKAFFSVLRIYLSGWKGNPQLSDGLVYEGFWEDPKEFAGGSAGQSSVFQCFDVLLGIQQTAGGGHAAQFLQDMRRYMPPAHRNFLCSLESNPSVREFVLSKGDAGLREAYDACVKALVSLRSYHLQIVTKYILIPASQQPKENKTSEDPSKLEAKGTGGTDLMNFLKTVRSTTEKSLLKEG

CCOP(=O)(Cc1cccc2ccccc12)NCCNc1nonc1/C(=N/O)Nc1ccc(F)c(Br)c1 (stereo not given)
IC50 [1]: 126 nM

CCOP(=O)(NCCNc1nonc1/C(=N/O)Nc1ccc(F)c(Br)c1)c1ccccc1 (stereo not given)
IC50 [1]: 132 nM

CCOP(=O)(Cc1ccccc1)NCCNc1nonc1/C(=N/O)Nc1ccc(F)c(Br)c1 (stereo not given)
IC50 [1]: 119 nM

NS(=O)(=O)NCCNc1nonc1C(=NO)Nc1ccc(F)c(Br)c1 [EPACADOSTAT]
IC50 [2]: 710 nM
IC50 [3]: > 10000 nM
Papp A→B at 1.5 h [4]: 3.1 ×10⁻⁶ cm/s
solubility at 30 h [5]: 130 µg/mL (≈ 297 µM)
Activity [6]: Toxic
Activity [7]: 21
inhibition in vivo at 60 mg/kg [8]: 77%
